Consider 6 molecules from ChEMBL document CHEMBL1743341, “Cytochrome p450 enzymes mechanism based inhibitors: common sub-structures and reactivity” (Curr Drug Metab, 2005).

Format in all cases: ADME
Series [1] concerns the target T1, CYP1A2 (Homo sapiens, UniProt P05177).
T1 sequence (P05177 whole entry): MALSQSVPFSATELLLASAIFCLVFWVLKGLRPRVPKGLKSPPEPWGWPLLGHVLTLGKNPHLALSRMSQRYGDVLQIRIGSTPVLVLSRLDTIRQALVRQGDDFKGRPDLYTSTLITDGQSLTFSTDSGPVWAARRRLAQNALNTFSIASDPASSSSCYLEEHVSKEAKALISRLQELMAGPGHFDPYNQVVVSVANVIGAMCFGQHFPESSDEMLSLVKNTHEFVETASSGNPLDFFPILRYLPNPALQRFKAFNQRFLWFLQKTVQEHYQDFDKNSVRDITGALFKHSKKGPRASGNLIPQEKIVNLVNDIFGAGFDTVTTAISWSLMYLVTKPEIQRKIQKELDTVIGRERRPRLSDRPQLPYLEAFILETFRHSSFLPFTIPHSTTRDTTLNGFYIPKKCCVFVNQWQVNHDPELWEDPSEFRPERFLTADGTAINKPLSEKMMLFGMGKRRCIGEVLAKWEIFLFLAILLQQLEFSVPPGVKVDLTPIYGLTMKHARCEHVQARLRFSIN
The experiment in a line: (§1) Mechanism based inhibition of human cytochrome P450 1A2 measured by phenacetin O-deethylation (POD). As to conditions: human, probe phenacetin (O-deethylation, POD).

Series [2] deals with T2, Cytochrome P450 1A2 (Homo sapiens, UniProt P05177).
T2 sequence (P05177 whole entry): T1 sequence (P05177 whole entry)
The series is described as §1.

The target in the next series is Cytochrome P450 2E1 (Rattus norvegicus, UniProt P05182). The series can be described thus: Mechanism based inhibition of rat cytochrome P450 CYP2E1.
Series [3] has as its target T3, Cytochrome P450 1A1 (Homo sapiens, UniProt P04798).
T3 sequence (P04798 whole entry): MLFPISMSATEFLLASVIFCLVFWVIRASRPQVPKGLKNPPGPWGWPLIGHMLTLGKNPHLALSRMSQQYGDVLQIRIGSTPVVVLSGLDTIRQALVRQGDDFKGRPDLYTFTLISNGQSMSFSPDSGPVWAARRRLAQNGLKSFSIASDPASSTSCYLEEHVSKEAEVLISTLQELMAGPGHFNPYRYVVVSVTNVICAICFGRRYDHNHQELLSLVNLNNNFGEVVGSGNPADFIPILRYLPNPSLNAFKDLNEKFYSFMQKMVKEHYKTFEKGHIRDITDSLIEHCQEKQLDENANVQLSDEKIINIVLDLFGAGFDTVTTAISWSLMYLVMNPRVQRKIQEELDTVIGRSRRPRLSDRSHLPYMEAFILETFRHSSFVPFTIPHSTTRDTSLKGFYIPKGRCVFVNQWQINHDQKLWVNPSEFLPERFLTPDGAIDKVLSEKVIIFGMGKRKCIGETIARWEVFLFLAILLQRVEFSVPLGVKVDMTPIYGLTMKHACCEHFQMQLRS
The series can be described thus: Mechanism based inhibition of human cytochrome P450 1A1 measured by 7-ethoxyresorufin O-deethylation (EROD).

A further series deals with T4, Cytochrome P450 1B1 (Homo sapiens, UniProt Q16678).
T4 sequence (Q16678 whole entry): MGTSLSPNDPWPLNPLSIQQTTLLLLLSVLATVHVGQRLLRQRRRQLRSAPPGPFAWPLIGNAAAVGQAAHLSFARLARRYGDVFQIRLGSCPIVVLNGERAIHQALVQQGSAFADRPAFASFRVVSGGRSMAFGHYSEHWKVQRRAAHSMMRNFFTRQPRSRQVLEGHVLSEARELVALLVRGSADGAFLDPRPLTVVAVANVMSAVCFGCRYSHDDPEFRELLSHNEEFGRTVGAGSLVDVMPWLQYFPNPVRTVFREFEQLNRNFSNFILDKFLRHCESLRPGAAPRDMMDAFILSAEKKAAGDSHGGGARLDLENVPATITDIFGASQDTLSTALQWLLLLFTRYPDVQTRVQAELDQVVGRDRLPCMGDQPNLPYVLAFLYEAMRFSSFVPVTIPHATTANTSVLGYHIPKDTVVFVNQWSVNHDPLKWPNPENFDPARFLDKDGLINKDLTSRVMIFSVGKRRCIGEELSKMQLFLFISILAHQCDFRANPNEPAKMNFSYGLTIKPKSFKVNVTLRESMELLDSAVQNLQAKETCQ
The experiment in a line: Mechanism based inhibition of human cytochrome P450 1B1 measured by 7-ethoxyresorufin O-deethylation (EROD).

The next series deals with T5, CYP1A1 (Rattus norvegicus, UniProt P00185).
T5 sequence (P00185 whole entry): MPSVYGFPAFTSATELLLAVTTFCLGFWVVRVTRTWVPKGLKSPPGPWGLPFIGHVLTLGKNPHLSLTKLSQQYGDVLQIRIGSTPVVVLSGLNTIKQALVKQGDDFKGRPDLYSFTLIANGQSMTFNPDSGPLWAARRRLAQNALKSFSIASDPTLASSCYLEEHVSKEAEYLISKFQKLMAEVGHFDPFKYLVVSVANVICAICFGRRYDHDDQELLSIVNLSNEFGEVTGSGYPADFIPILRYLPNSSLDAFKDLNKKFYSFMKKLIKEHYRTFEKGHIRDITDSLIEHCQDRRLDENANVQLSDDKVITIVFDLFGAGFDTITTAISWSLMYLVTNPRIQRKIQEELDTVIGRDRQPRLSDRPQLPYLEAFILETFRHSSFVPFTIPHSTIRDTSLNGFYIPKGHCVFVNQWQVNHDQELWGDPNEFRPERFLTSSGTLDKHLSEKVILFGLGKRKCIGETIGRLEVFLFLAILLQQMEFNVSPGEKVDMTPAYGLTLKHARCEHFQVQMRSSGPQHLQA
The series can be described thus: (§2) Mechanism based inhibition of rat cytochrome P450 CYP1A1 measured by 7-ethoxyresorufin O-deethylation (EROD). As to conditions: rat, probe 7-ethoxyresorufin (O-deethylation, EROD).

The target in series [4] is T6, Cytochrome P450 1A1 (Rattus norvegicus, UniProt P00185).
T6 sequence (P00185 whole entry): T5 sequence (P00185 whole entry)
Described as §2.

Series [5] deals with T7, CYP1A2 (Rattus norvegicus, UniProt P04799).
T7 sequence (P04799 whole entry): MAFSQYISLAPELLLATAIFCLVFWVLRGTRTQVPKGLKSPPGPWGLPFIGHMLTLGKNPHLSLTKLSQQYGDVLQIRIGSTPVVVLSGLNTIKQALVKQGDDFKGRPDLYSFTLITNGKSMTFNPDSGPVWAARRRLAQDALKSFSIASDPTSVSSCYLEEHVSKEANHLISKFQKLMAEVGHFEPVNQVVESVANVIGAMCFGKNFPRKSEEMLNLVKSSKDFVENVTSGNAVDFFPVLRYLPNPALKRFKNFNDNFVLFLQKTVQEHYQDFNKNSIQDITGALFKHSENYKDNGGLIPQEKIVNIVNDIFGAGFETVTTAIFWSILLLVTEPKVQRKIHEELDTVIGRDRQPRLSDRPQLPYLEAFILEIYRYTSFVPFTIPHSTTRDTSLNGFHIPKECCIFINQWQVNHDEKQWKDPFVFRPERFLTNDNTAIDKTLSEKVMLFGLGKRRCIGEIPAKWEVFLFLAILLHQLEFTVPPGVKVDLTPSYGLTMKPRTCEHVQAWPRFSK
The experiment in a line: (§3) Mechanism based inhibition of rat cytochrome P450 CYP1A2 measured by 7-methoxyresorufin O-demethylation (MROD). Particulars: rat, probe 7-methoxyresorufin (O-demethylation, MROD).

For series [6], the target named is T8, Cytochrome P450 1A2 (Rattus norvegicus, UniProt P04799).
T8 sequence (P04799 whole entry): T7 sequence (P04799 whole entry)
The description is as §3.

Chain of Cytochrome P450 2E1 (P05182 whole entry): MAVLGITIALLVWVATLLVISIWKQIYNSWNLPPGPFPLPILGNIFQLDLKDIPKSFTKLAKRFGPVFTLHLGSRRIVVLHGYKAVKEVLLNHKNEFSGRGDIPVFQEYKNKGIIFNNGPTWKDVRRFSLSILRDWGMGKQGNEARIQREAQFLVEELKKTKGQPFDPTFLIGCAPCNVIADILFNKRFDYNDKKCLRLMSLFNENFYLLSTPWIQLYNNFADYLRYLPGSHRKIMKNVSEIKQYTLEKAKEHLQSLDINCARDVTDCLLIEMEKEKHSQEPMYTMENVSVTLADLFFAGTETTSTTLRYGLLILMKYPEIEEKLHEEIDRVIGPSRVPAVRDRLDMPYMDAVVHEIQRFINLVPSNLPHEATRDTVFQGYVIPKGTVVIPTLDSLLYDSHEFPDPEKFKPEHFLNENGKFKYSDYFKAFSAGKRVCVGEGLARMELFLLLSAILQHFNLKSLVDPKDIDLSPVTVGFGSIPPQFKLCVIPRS

In general, kinact refers to the rate constant of inactivation at saturating inhibitor. Consider `C[C@@H](c1cc2ccccc2s1)N(O)C(N)=O`, for which the kinact on CYP1A2 [1] was 0.000617 s⁻¹. The molecule also yielded a Ki at Cytochrome P450 1A2 [2] of 98.2 µM.

With `C[C@H](c1cc2ccccc2s1)N(O)C(N)=O`, the kinact at CYP1A2 [1] is 0.0002 s⁻¹. At Cytochrome P450 1A2 [2], this molecule returned a Ki of 66 µM.

Consider `C/C=C\Cl.Cl/C=C\Cl`, for which the mechanism based inhibition entry at Cytochrome P450 2E1 was “Cytochrome P450 mechanistic inhibitor: PMID 9851676”.

Take `C#Cc1cc2ccc3cccc4ccc(c1)c2c34`: the mechanism based inhibition result at Cytochrome P450 1A1 [3] and on Cytochrome P450 1B1 was “Cytochrome P450 mechanistic inhibitor: PMID 9760279” throughout.

`CC#Cc1ccc2ccc3cccc4ccc1c2c34`: the maximal inactivation rate constant (kinact) at CYP1A1 is 0.000333 s⁻¹; on CYP1A2 [5] it was 0.001 s⁻¹. Besides, the results for the Ki on Cytochrome P450 1A1 [4] and on Cytochrome P450 1A2 [6] were 0.3 µM and 0.004 µM, respectively.

For the molecule `CC(c1cc2ccccc2s1)N(O)C(N)=O` (racemic) [ZILEUTON], at CYP1A2 [1], the kinact is 0.000583 s⁻¹. The Ki at Cytochrome P450 1A2 [2] came out at 117 µM.
